“And” between values parts separate entries of the source, which are not always exact repeats. Equal values may be shown once. Read-outs that look alike come from different tables or passages of the source.
Assays:
wild-type EGFR = wild-type EGFR (Homo sapiens, UniProt P00533); experiment: EGFR kinase assay (ELISA); details: for IC50: IC50 (μM) EGFR, ELISA, 3 μmol/L ATP; for A450: raw ELISA absorbance
H460 cells = experiment: CCK-8 antiproliferation assay, H460; details: for IC50: NCI-H460, 48 h, read-out: IC50 (μM) H460, CCK-8, 48 h, average ± SD of three independent experiments
A549 cells = experiment: CCK-8 antiproliferation assay, A549; details: for Inhibitory efficacy: A549 cells; for IC50: A549, 48 h, read-out: IC50 (μM) A549, CCK-8, 48 h, average ± SD of three independent experiments
PC-9 cells = experiment: CCK-8 antiproliferation assay, PC-9; details: for IC50: PC-9, 48 h, read-out: IC50 (μM) PC-9; for inhibition at 8 µM: PC-9, read-out: Inhibitory efficacy, PC-9, 8uM, single repeats (Repeat 1-3), given as fraction; for inhibition at 16 µM: PC-9, read-out: Inhibitory efficacy, PC-9, 16uM, single repeats (Repeat 1-3), given as fraction; for Inhibitory efficacy: single repeats (Repeat 1-3), given as fraction
H1975 cells = experiment: CCK-8 antiproliferation assay, H1975; details: for Inhibitory efficacy: H1975 cells; for Inhibitory efficacy / inhibition at 2 µM / inhibition at 4 µM / inhibition at 8 µM / inhibition at 16 µM: given as fraction, Repeat 1-3; for IC50 / inhibition at 2 µM / inhibition at 4 µM / inhibition at 8 µM / inhibition at 16 µM: Homo sapiens; for IC50: NCI-H1975, 48 h, read-out: IC50 (μM) H1975, CCK-8, 48 h, average ± SD of three independent experiments; for inhibition at 2 µM / inhibition at 4 µM / inhibition at 8 µM / inhibition at 16 µM: NCI-H1975, read-out: Inhibitory efficacy, H1975 cells
[1] = 2uM, given as fraction, Repeat 1-3
[2] = 4uM, given as fraction, Repeat 1-3
[3] = 8uM, given as fraction, Repeat 1-3
[4] = 16uM, given as fraction, Repeat 1-3
[5] = Homo sapiens, A549, read-out: Inhibitory efficacy, A549 cells, 2uM, given as fraction, Repeat 1-3
[6] = Homo sapiens, A549, read-out: Inhibitory efficacy, A549 cells, 4uM, given as fraction, Repeat 1-3
[7] = Homo sapiens, A549, read-out: Inhibitory efficacy, A549 cells, 8uM, given as fraction, Repeat 1-3
[8] = Homo sapiens, A549, read-out: Inhibitory efficacy, A549 cells, 16uM, given as fraction, Repeat 1-3

wild-type EGFR, sequence (P00533 25-1210): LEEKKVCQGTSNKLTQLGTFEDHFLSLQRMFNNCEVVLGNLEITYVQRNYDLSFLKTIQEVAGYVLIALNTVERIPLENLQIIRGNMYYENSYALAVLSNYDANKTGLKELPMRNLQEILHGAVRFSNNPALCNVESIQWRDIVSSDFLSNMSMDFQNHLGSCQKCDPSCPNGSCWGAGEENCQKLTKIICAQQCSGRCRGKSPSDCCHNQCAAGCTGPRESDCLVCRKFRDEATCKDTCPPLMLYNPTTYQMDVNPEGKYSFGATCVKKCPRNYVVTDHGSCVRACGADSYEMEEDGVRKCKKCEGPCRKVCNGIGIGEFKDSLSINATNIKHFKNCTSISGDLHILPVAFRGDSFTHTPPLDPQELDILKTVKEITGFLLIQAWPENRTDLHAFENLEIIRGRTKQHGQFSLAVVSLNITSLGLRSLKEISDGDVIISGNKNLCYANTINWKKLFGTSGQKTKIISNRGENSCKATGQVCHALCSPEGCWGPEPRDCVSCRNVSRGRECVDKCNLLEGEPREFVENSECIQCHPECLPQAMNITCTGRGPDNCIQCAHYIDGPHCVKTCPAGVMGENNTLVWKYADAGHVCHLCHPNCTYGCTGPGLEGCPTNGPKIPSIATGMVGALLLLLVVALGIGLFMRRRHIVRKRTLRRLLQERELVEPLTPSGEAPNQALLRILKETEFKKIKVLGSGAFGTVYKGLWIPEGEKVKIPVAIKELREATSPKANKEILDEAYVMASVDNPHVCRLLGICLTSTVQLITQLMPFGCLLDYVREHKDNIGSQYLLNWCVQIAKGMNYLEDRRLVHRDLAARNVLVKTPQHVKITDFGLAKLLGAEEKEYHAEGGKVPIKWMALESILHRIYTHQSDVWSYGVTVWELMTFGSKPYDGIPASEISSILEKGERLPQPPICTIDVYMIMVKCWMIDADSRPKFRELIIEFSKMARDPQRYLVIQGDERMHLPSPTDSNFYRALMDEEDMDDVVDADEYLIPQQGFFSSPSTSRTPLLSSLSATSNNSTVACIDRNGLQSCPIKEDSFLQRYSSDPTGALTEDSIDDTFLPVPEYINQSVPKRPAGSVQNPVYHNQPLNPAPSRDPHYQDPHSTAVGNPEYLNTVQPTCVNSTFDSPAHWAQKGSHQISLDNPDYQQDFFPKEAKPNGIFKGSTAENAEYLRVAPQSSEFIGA

## COCCOc1cc2ncnc(Nc3cccc(-c4cn(-c5ccccc5OC)nn4)c3)c2cc1OCCOC [e11, [6,7-Bis-(2-methoxy-ethoxy)-quinazolin-4-yl]-{3-[1-(2-methoxy-phenyl)-1H-[1,2,3]triazol-4-yl]-phenyl}-amine]
other
  melting point: 87 to 90 °C
wild-type EGFR
  IC50: 49.4 µM
wild-type EGFR; concentration 0.0001 nM (reference for normalisation), one value per replicate column
  inhibition at 100 fM: 0%
wild-type EGFR; concentration 0.03 nM, one value per replicate column
  inhibition at 30 pM: 4.93%
wild-type EGFR; concentration 0.03 nM, one value per replicate column, 3e-05 µM
  Inhibition: 3.3195
wild-type EGFR; concentration 0.3 nM, one value per replicate column
  inhibition at 0.0003 µM: 5.78%
wild-type EGFR; concentration 0.3 nM, one value per replicate column, 0.0003 µM
  Inhibition: 3.734
wild-type EGFR; concentration 3 nM, one value per replicate column
  inhibition at 0.003 µM: 6.42%
wild-type EGFR; concentration 3 nM, one value per replicate column, 0.003 µM
  Inhibition: 4.357
wild-type EGFR; concentration 30 nM, one value per replicate column
  inhibition at 0.03 µM: 7.71%
wild-type EGFR; concentration 30 nM, one value per replicate column, 0.03 µM
  Inhibition: 6.432
wild-type EGFR; concentration 300 nM, one value per replicate column
  inhibition at 0.3 µM: 13.1%
wild-type EGFR; concentration 300 nM, one value per replicate column, 0.3 µM
  Inhibition: 8.091
wild-type EGFR; concentration 3000 nM, one value per replicate column
  inhibition at 3 µM: 13.3%
wild-type EGFR; concentration 3000 nM, one value per replicate column, 3 µM
  Inhibition: 12.4481
wild-type EGFR; concentration 30000 nM, one value per replicate column
  inhibition at 30 µM: 46.9%
wild-type EGFR; concentration 30000 nM, one value per replicate column, 30 µM
  Inhibition: 45.2282
wild-type EGFR; concentration 0.0001 nM
  A450: 0.614 and 0.641
wild-type EGFR; concentration 0.03 nM
  A450: 0.591 and 0.625
wild-type EGFR; concentration 0.3 nM
  A450: 0.587 and 0.623
wild-type EGFR; concentration 3 nM
  A450: 0.584 and 0.62
wild-type EGFR; concentration 30 nM
  A450: 0.578 and 0.61
wild-type EGFR; concentration 300 nM
  A450: 0.553 and 0.602
wild-type EGFR; concentration 3000 nM
  A450: 0.552 and 0.581
wild-type EGFR; concentration 30000 nM
  A450: 0.395 and 0.423
H460 cells; H460 cells, 2uM, given as fraction, Repeat 1-3
  Inhibitory efficacy: 0.2801 and 0.2884
H460 cells; H460 cells, 4uM, given as fraction, Repeat 1-3
  Inhibitory efficacy: 0.5058 and 0.5573
H460 cells; H460 cells, 8uM, given as fraction, Repeat 1-3
  Inhibitory efficacy: 0.6543 and 0.6301
H460 cells; H460 cells, 16uM, given as fraction, Repeat 1-3
  Inhibitory efficacy: 0.6649 and 0.6664
H460 cells; Homo sapiens
  IC50: 4.89 ± 0.23 µM
H460 cells; Homo sapiens, NCI-H460, read-out: Inhibitory efficacy, H460 cells, 2uM, given as fraction, Repeat 1-3
  inhibition at 2 µM: 34.4%
H460 cells; Homo sapiens, NCI-H460, read-out: Inhibitory efficacy, H460 cells, 4uM, given as fraction, Repeat 1-3
  inhibition at 4 µM: 48.9%
H460 cells; Homo sapiens, NCI-H460, read-out: Inhibitory efficacy, H460 cells, 8uM, given as fraction, Repeat 1-3
  inhibition at 8 µM: 64.7%
H460 cells; Homo sapiens, NCI-H460, read-out: Inhibitory efficacy, H460 cells, 16uM, given as fraction, Repeat 1-3
  inhibition at 16 µM: 69.5%
A549 cells; [1]
  Inhibitory efficacy: 0.1633 and 0.2142
A549 cells; [2]
  Inhibitory efficacy: 0.2462 and 0.3291
A549 cells; [3]
  Inhibitory efficacy: 0.4514 and 0.4662
A549 cells; [4]
  Inhibitory efficacy: 0.7059 and 0.6624
A549 cells; Homo sapiens
  IC50: 8.4 ± 0.29 µM
A549 cells; [5]
  inhibition at 2 µM: 20.1%
A549 cells; [6]
  inhibition at 4 µM: 25%
A549 cells; [7]
  inhibition at 8 µM: 52.7%
A549 cells; [8]
  inhibition at 16 µM: 68.7%
PC-9 cells; Homo sapiens
  IC50: 16 ± 1.04 µM
  inhibition at 8 µM: 27.4%
  inhibition at 16 µM: 46.7%
PC-9 cells; PC-9, 8uM, 8 µM
  Inhibitory efficacy: 0.2959 and 0.2658
PC-9 cells; PC-9, 16uM, 16 µM
  Inhibitory efficacy: 0.4848 and 0.4258
H1975 cells; 2uM
  Inhibitory efficacy: 0.257 and 0.2168
  inhibition at 2 µM: 29.1%
H1975 cells; 4uM
  Inhibitory efficacy: 0.213 and 0.192
  inhibition at 4 µM: 32.2%
H1975 cells; 8uM
  Inhibitory efficacy: 0.4311 and 0.3814
  inhibition at 8 µM: 49.2%
H1975 cells; 16uM
  Inhibitory efficacy: 0.6071 and 0.5938
  inhibition at 16 µM: 59.9%
H1975 cells
  IC50: 10.8 ± 1.57 µM

## COCCOc1cc2ncnc(Nc3cccc(-c4cn(-c5ccc(F)cc5)nn4)c3)c2cc1OCCOC [e7, [6,7-Bis-(2-methoxy-ethoxy)-quinazolin-4-yl]-{3-[1-(4-fluoro-phenyl)-1H-[1,2,3]triazol-4-yl]-phenyl}-amine]
other
  melting point: 88 to 91 °C
wild-type EGFR; 0.3 nM, duplicate wells, calculated from A450
  inhibition at 0.0003 µM: 6.05%
wild-type EGFR; 0.3 nM, duplicate wells, calculated from A450, 0.0003 µM
  Inhibition: 3.39
wild-type EGFR; 3 nM, duplicate wells, calculated from A450
  inhibition at 0.003 µM: 8.07%
wild-type EGFR; 3 nM, duplicate wells, calculated from A450, 0.003 µM
  Inhibition: 4.0678
wild-type EGFR; 30 nM, duplicate wells, calculated from A450
  inhibition at 0.03 µM: 9.08%
wild-type EGFR; 30 nM, duplicate wells, calculated from A450, 0.03 µM
  Inhibition: 6.78
wild-type EGFR; 300 nM, duplicate wells, calculated from A450
  inhibition at 0.3 µM: 10.9%
wild-type EGFR; 300 nM, duplicate wells, calculated from A450, 0.3 µM
  Inhibition: 7.627
wild-type EGFR; 3000 nM, duplicate wells, calculated from A450
  inhibition at 3 µM: 13.4%
wild-type EGFR; 3000 nM, duplicate wells, calculated from A450, 3 µM
  Inhibition: 20.339
wild-type EGFR; 30000 nM, duplicate wells, calculated from A450
  inhibition at 30 µM: 61%
wild-type EGFR; 30000 nM, duplicate wells, calculated from A450, 30 µM
  Inhibition: 71.3559
wild-type EGFR
  IC50: 14.7 µM
H460 cells; H460, 1uM, single repeats (Repeat 1-3), given as fraction, 1 µM
  Inhibitory efficacy: 0.233 and 0.152
H460 cells; H460, 2uM, single repeats (Repeat 1-3), given as fraction, 2 µM
  Inhibitory efficacy: 0.3048 and 0.3792
H460 cells; H460, 4uM, single repeats (Repeat 1-3), given as fraction, 4 µM
  Inhibitory efficacy: 0.2364 and 0.2572
H460 cells; H460, 8uM, single repeats (Repeat 1-3), given as fraction, 8 µM
  Inhibitory efficacy: 0.2581 and 0.2146
H460 cells; H460, 16uM, single repeats (Repeat 1-3), given as fraction, 16 µM
  Inhibitory efficacy: 0.3099 and 0.4184
H460 cells; Homo sapiens
  IC50: > 100 µM
H460 cells; Homo sapiens, NCI-H460, read-out: Inhibitory efficacy, H460, 1uM, single repeats (Repeat 1-3), given as fraction
  inhibition at 1 µM: 13.2%
H460 cells; Homo sapiens, NCI-H460, read-out: Inhibitory efficacy, H460, 2uM, single repeats (Repeat 1-3), given as fraction
  inhibition at 2 µM: 30.4%
H460 cells; Homo sapiens, NCI-H460, read-out: Inhibitory efficacy, H460, 4uM, single repeats (Repeat 1-3), given as fraction
  inhibition at 4 µM: 30.3%
H460 cells; Homo sapiens, NCI-H460, read-out: Inhibitory efficacy, H460, 8uM, single repeats (Repeat 1-3), given as fraction
  inhibition at 8 µM: 29.6%
H460 cells; Homo sapiens, NCI-H460, read-out: Inhibitory efficacy, H460, 16uM, single repeats (Repeat 1-3), given as fraction
  inhibition at 16 µM: 26.7%
A549 cells; 1uM, given as fraction, Repeat 1-3
  Inhibitory efficacy: 0.3498 and 0.2466
A549 cells; [1]
  Inhibitory efficacy: 0.3315 and 0.2534
A549 cells; [2]
  Inhibitory efficacy: 0.2813 and 0.2524
A549 cells; [3]
  Inhibitory efficacy: 0.2486 and 0.3238
A549 cells; [4]
  Inhibitory efficacy: 0.291 and 0.2842
A549 cells; Homo sapiens
  IC50: > 100 µM
A549 cells; Homo sapiens, A549, read-out: Inhibitory efficacy, A549 cells, 1uM, given as fraction, Repeat 1-3
  inhibition at 1 µM: 27.5%
A549 cells; [5]
  inhibition at 2 µM: 24.8%
A549 cells; [6]
  inhibition at 4 µM: 30.8%
A549 cells; [7]
  inhibition at 8 µM: 29.7%
A549 cells; [8]
  inhibition at 16 µM: 37.2%
PC-9 cells; Homo sapiens
  IC50: 11.5 ± 1.57 µM
  inhibition at 8 µM: 41.9%
  inhibition at 16 µM: 62.5%
PC-9 cells; Homo sapiens, PC-9, read-out: Inhibitory efficacy, PC-9, 4uM, single repeats (Repeat 1-3), given as fraction
  inhibition at 4 µM: 21.3%
PC-9 cells; PC-9, 4uM, 4 µM
  Inhibitory efficacy: 0.2652 and 0.1935
PC-9 cells; PC-9, 8uM, 8 µM
  Inhibitory efficacy: 0.448 and 0.4014
PC-9 cells; PC-9, 16uM, 16 µM
  Inhibitory efficacy: 0.5556 and 0.543
H1975 cells; 2uM
  Inhibitory efficacy: 0.2223 and 0.2165
  inhibition at 2 µM: 29.3%
H1975 cells; 4uM
  Inhibitory efficacy: 0.3132 and 0.3374
  inhibition at 4 µM: 38.9%
H1975 cells; 8uM
  Inhibitory efficacy: 0.4723 and 0.4708
  inhibition at 8 µM: 50.2%
H1975 cells; 16uM
  Inhibitory efficacy: 0.4151 and 0.4664
  inhibition at 16 µM: 54.1%
H1975 cells
  IC50: 13.1 ± 4.41 µM

From PMC8776995 (Frontiers in Chemistry, 2022)
